# Source: patent US12640239B2, “Functional biomarkers for statin therapy in age-related macular degeneration (AMD)” (APELIOTUS TECHNOLOGIES, INC., priority 2017, dated 2026)
# System: AMD patients
# Test: Dark adaptation testing, rod intercept (RI) time, AdaptDx Dark Adaptometer Extended Test protocol
# Format: in vivo, human
# Conditions: for Improvement in RI time: Patient 2, atorvastatin 80 mg/day, July 2018 vs January 2015
# Description: Dark adaptation is preferably measured using devices known in the art, for example as described in U.S. Pat. No. 7,494,222. […] Briefly, the methods of the prior art as described therein, while sitting in complete or near-complete darkness the subject is first exposed to a bright photobleaching light to photobleach one or more of the visual pigments. This is followed by exposure to a series of dim stimulus lights to track visual sensitivity recovery from the photobleach. The intensity of the stimulus lights is gradually […] (generally in a staircase fashion), and the subject indicates whether each stimulus light presentation is detectable (e.g., by pushing a response button) or not detectable (e.g., by failing to push the response button). The just-detectible stimulus light intensity and the time at which it is detected are periodically recorded to generate a dark adaptation threshold curve. Finally, the speed of dark adaption is characterized by a parameter extracted from the threshold curve such as the rod intercept time or the rod-cone break time.
# Table 2 provides detailed information regarding patients 1 to 7, including the baseline diagnosis (diagnosis made when starting statin therapy), ending diagnosis (the diagnosis made on the date of the last referenced evaluation), the results of evaluations performed on each patient, and whether the patient responded to statin therapy. The dark adaptation data in this Example is the rod intercept time (or RI time) reported in minutes. In this Example, the dark adaptation data was collected using the AdaptDx® Dark Adaptometer (MacuLogix, Middletown, PA) running its standard Extended Test protocol. […] Data is automatically analyzed by the AdaptDx Dark Adaptometer to provide an RI time based on recovery to a criterion sensitivity level of 5×10^−3 scotopic cd/m^2. […] The visual acuity data was collected using a standard Snellen or ETDRS eye chart with the results presented using the standard 20/20 vision scale. Drusen resolution was determined by evaluation of fundus and OCT imaging by qualified clinicians experienced in AMD evaluation. Fundus and OCT imaging data was collected using the Heidelberg Engineering Spectralis® SD-OCT (Heidelberg, Germany) or the Karl Zeiss Meditec Cirrus® HD-OCT (Jena, Germany), in both cases running standard protocols with automated data analysis performed by the instruments.
smiles,measurement,setting,value
CC(C)c1c(C(=O)Nc2ccccc2)c(-c2ccccc2)c(-c2ccc(F)cc2)n1CC[C@@H](O)C[C@@H](O)CC(=O)O [atorvastatin],Improvement in RI time,OD,1.67 min
same,Improvement in RI time,OS,2.60 min
same,Change in RI time,"Patient 5, atorvastatin 80 then 20 mg/day, pravastatin 20 mg/day from April 2018, left eye, June 2018 vs October 2015",essentially unchanged
same,Increase in RI time,"Patient 5, atorvastatin 80 then 20 mg/day, pravastatin 20 mg/day from April 2018, right eye, June 2018 vs October 2015",7.51 min
same,RI (rod intercept time),"Patient #1, atorvastatin 20 to 80 mg/day, OD, month 24 (July 2015)",RI > 20 minutes
same,RI (rod intercept time),"Patient #1, atorvastatin 20 to 80 mg/day, OD, month 60 (July 2018)",RI > 20 minutes
same,RI (rod intercept time),"Patient #1, atorvastatin 20 to 80 mg/day, OS, month 24 (July 2015)",RI = 17.13 minutes
same,RI (rod intercept time),"Patient #1, atorvastatin 20 to 80 mg/day, OS, month 60 (July 2018)",RI > 20 minutes
same,RI (rod intercept time),"Patient #2, atorvastatin 80 mg/day, OD, month 24 (January 2015)",RI = 18.72 minutes
same,RI (rod intercept time),"Patient #2, atorvastatin 80 mg/day, OD, month 66 (July 2018)",RI = 17.05 minutes
same,RI (rod intercept time),"Patient #2, atorvastatin 80 mg/day, OS, month 24 (January 2015)",RI = 9.88 minutes
same,RI (rod intercept time),"Patient #2, atorvastatin 80 mg/day, OS, month 66 (July 2018)",RI = 7.28 minutes
same,RI (rod intercept time),"Patient #3, atorvastatin 80 mg/day, OD, month 8 (June 2017)",RI > 20 minutes
same,RI (rod intercept time),"Patient #3, atorvastatin 80 mg/day, OD, month 20 (June 2018)",RI > 20 minutes
same,RI (rod intercept time),"Patient #3, atorvastatin 80 mg/day, OS, month 8 (June 2017)",RI > 20 minutes
same,RI (rod intercept time),"Patient #3, atorvastatin 80 mg/day, OS, month 20 (June 2018)",RI > 20 minutes
same,RI (rod intercept time),"Patient #4, atorvastatin 80 mg/day, OD, month 0 (May 2018), baseline",RI > 20 minutes
same,RI (rod intercept time),"Patient #4, atorvastatin 80 mg/day, OD, month 4 (September 2018)",RI > 20 minutes
same,RI (rod intercept time),"Patient #4, atorvastatin 80 mg/day, OS, month 0 (May 2018), baseline",RI > 20 minutes
same,RI (rod intercept time),"Patient #4, atorvastatin 80 mg/day, OS, month 4 (September 2018)",RI > 20 minutes
same,RI (rod intercept time),"Patient #5, atorvastatin 80 mg/day (suspended January 2015-February 2016), then 20 mg/day, pravastatin 20 mg/day from April 2018, OD, month 52 (June 2018)",RI = 17.19 minutes
same,RI (rod intercept time),"Patient #5, atorvastatin 80 mg/day (suspended January 2015-February 2016), then 20 mg/day, pravastatin 20 mg/day from April 2018, OS, month 52 (June 2018)",RI = 10.81 minutes
same,RI (rod intercept time),"Patient #5, atorvastatin 80 mg/day January 2014 to January 2015, therapy suspended until February 2016, OD, month 21 (October 2015)",RI = 9.68 minutes
same,RI (rod intercept time),"Patient #5, atorvastatin 80 mg/day January 2014 to January 2015, therapy suspended until February 2016, OS, month 21 (October 2015)",RI = 11.04 minutes
same,RI (rod intercept time),"Patient #6, atorvastatin 80 mg/day from November 2017, OD, month −3 (August 2017), before initiation",RI = 5.75 minutes
same,RI (rod intercept time),"Patient #6, atorvastatin 80 mg/day, OD, month 9 (August 2018)",RI = 2.55 minutes
same,RI (rod intercept time),"Patient #7, atorvastatin 10 to 20 mg/day, OD, month 0 (April 2016), baseline",RI > 20 minutes
same,RI (rod intercept time),"Patient #7, atorvastatin 10 to 20 mg/day, OD, month 27 (July 2018)",RI > 20 minutes
same,RI (rod intercept time),"Patient #7, atorvastatin 10 to 20 mg/day, OS, month 0 (April 2016), baseline",RI > 20 minutes
same,RI (rod intercept time),"Patient #7, atorvastatin 10 to 20 mg/day, OS, month 27 (July 2018)",RI > 20 minutes
